Consider 19 substances from the OligoGym collection.

This data set has as its target HBV. The following applies: ASO.

Several values for one entry are separate records, joined by “and”; a condition that tells them apart may be missing. Equal entries are not always repeated. HELM strings list units from the 5' end as sugar, base in round brackets, then linkage (d deoxyribose, r ribose, m 2'-O-methyl, p phosphodiester). Methylation of C is not given here. [moe] = 2'-O-(2-methoxyethyl) (MOE); [cEt] = constrained ethyl (cEt); [sp] = phosphorothioate linkage

With “RNA1{[moe](A)[sp].[moe](G)[sp].[moe](G)[sp].d(T)[sp].d(G)[sp].d(A)[sp].d(A)[sp].d(G)[sp].d(C)[sp].d(G)[sp].d(A)[sp].d(A)[sp].d(G)[sp].[cEt](T)[sp].[cEt](G)[sp].[cEt](C)}$$$$V2.0”, the target mRNA inhibition (HepG2, 0.07 µM) was 73% and 68%.
For “RNA1{[moe](C)[sp].[moe](T)[sp].[moe](A)[sp].d(G)[sp].d(T)[sp].d(A)[sp].d(A)[sp].d(A)[sp].d(C)[sp].d(T)[sp].d(G)[sp].d(A)[sp].d(G)[sp].[cEt](C)[sp].[cEt](C)[sp].[cEt](A)}$$$$V2.0”, the target mRNA inhibition (HepG2, 0.07 µM) was 71% and 79%.
Consider “RNA1{[moe](G)[sp].[cEt](C)[sp].d(A)[sp].d(G)[sp].d(T)[sp].d(A)[sp].d(T)[sp].d(G)[sp].d(G)[sp].d(A)[sp].d(T)[sp].d(C)[sp].[cEt](G)[sp].[moe](G)[sp].[cEt](C)[sp].[moe](A)}$$$$V2.0”, for which the target mRNA inhibition runs as follows: (HepG2, 0.0092593 µM) 25%; (HepG2, 0.0277778 µM) 44%; (HepG2, 0.07 µM) 83% and 90%; (HepG2, 0.0833333 µM) 77%; (HepG2, 0.25 µM) 89%.
Consider “RNA1{[moe](G)[sp].[moe](G)[sp].[moe](C)[sp].[cEt](A)[sp].[cEt](T)[sp].d(A)[sp].d(G)[sp].d(C)[sp].d(A)[sp].d(G)[sp].d(C)[sp].d(A)[sp].d(G)[sp].[moe](G)[sp].[moe](A)[sp].[moe](T)[sp].[moe](G)}$$$$V2.0”, for which the target mRNA inhibition came out at 17% (HepG2, 0.009375 µM); 32% (HepG2, 0.01875 µM); 52% (HepG2, 0.0375 µM); 68% (HepG2, 0.075 µM); 77% (HepG2, 0.15 µM); 81% (HepG2, 0.3 µM).
As for “RNA1{[moe](C)[sp].[moe](C)[sp].[moe](A)[sp].[moe](A)[sp].d(T)[sp].d(T)[sp].d(T)[sp].d(A)[sp].d(T)[sp].d(G)[sp].d(C)[sp].d(C)[sp].d(T)[sp].[moe](A)[sp].[moe](C)[sp].[moe](A)}$$$$V2.0”, the target mRNA inhibition (HepG2, 0.07 µM) was 24% and 8%.
Take “RNA1{[moe](G)[sp].[moe](T)[sp].[moe](G)[sp].d(A)[sp].d(A)[sp].d(G)[sp].d(C)[sp].d(G)[sp].d(A)[sp].d(A)[sp].d(G)[sp].d(T)[sp].d(G)[sp].[cEt](C)[sp].[cEt](A)[sp].[cEt](C)}$$$$V2.0”: the target mRNA inhibition reads like this: (HepG2, 0.0092593 µM) 0%; (HepG2, 0.0277778 µM) 32%; (HepG2, 0.07 µM) 74% and 84%; (HepG2, 0.0833333 µM) 68%; (HepG2, 0.25 µM) 86%.
Turning to “RNA1{[moe](T)[sp].[moe](C)[sp].[moe](C)[sp].d(G)[sp].d(C)[sp].d(A)[sp].d(G)[sp].d(T)[sp].d(A)[sp].d(T)[sp].d(G)[sp].d(G)[sp].d(A)[sp].[cEt](T)[sp].[cEt](C)[sp].[cEt](G)}$$$$V2.0”, the target mRNA inhibition (HepG2, 0.07 µM) is 73% and 53%.
Regarding “RNA1{[moe](G)[sp].[cEt](C)[sp].[cEt](A)[sp].d(C)[sp].d(T)[sp].d(A)[sp].d(G)[sp].d(T)[sp].d(A)[sp].d(A)[sp].d(A)[sp].d(C)[sp].d(T)[sp].[cEt](G)[sp].[cEt](A)[sp].[moe](G)}$$$$V2.0”, the target mRNA inhibition (HepG2, 0.0092593 µM) came out at 8%; the target mRNA inhibition (HepG2, 0.0277778 µM) was 24%; the target mRNA inhibition (HepG2, 0.07 µM) was 73% and 81%; the target mRNA inhibition (HepG2, 0.0833333 µM) worked out at 65%; the target mRNA inhibition (HepG2, 0.25 µM) was 87%.
Consider “RNA1{[moe](T)[sp].[cEt](C)[sp].d(C)[sp].d(G)[sp].d(C)[sp].d(A)[sp].d(G)[sp].d(T)[sp].d(A)[sp].d(T)[sp].d(G)[sp].d(G)[sp].[cEt](A)[sp].[moe](T)[sp].[cEt](C)[sp].[moe](G)}$$$$V2.0”, for which the target mRNA inhibition runs as follows: (HepG2, 0.0092593 µM) 33%; (HepG2, 0.0277778 µM) 56%; (HepG2, 0.07 µM) 85% and 81%; (HepG2, 0.0833333 µM) 80%; (HepG2, 0.25 µM) 92%.
For “RNA1{[moe](C)[sp].[moe](T)[sp].d(G)[sp].d(G)[sp].d(A)[sp].d(G)[sp].d(C)[sp].d(C)[sp].d(A)[sp].d(C)[sp].d(C)[sp].[moe](A)[sp].[moe](G)[sp].[moe](C)[sp].[moe](A)[sp].[moe](G)}$$$$V2.0”, under “HepG2, 0.07 µM”, the target mRNA inhibition was 57% and 53%.
“RNA1{[moe](A)[sp].[moe](G)[sp].[moe](A)[sp].[moe](G)[sp].d(G)[sp].d(T)[sp].d(G)[sp].d(A)[sp].d(A)[sp].d(G)[sp].d(C)[sp].d(G)[sp].d(A)[sp].[moe](A)[sp].[moe](G)[sp].[moe](T)[sp].[moe](G)}$$$$V2.0”: where the note is “HepG2, 0.07 µM”, the target mRNA inhibition was 50% and 47%.
Same read-out and setting: with “RNA1{[moe](G)[sp].[moe](A)[sp].[moe](A)[sp].[moe](G)[sp].[moe](C)[sp].[moe](G)[sp].d(A)[sp].d(A)[sp].d(G)[sp].d(T)[sp].d(G)[sp].d(C)[sp].d(A)[sp].d(C)[sp].d(A)[sp].[moe](C)[sp].[moe](G)}$$$$V2.0” the figure was 87% and 66%; with “RNA1{[moe](G)[sp].[moe](G)[sp].[moe](T)[sp].[moe](G)[sp].d(A)[sp].d(A)[sp].d(G)[sp].d(C)[sp].d(G)[sp].d(A)[sp].d(A)[sp].d(G)[sp].d(T)[sp].[moe](G)[sp].[moe](C)[sp].[moe](A)[sp].[moe](C)}$$$$V2.0”, 63% and 59%.
Same read-out and setting: the figure for “RNA1{[moe](A)[sp].[moe](A)[sp].[moe](C)[sp].d(C)[sp].d(A)[sp].d(C)[sp].d(T)[sp].d(G)[sp].d(A)[sp].d(A)[sp].d(C)[sp].d(A)[sp].d(A)[sp].[cEt](A)[sp].[cEt](T)[sp].[cEt](G)}$$$$V2.0” is 41% and 38%; for “RNA1{[moe](T)[sp].[moe](T)[sp].[moe](A)[sp].[moe](T)[sp].d(G)[sp].d(C)[sp].d(C)[sp].d(T)[sp].d(A)[sp].d(C)[sp].d(A)[sp].d(G)[sp].d(C)[sp].[moe](C)[sp].[moe](T)[sp].[moe](C)[sp].[moe](C)}$$$$V2.0” it is 52% and 34%.
Still for that read-out and setting: the figure for “RNA1{[moe](A)[sp].[moe](A)[sp].[moe](C)[sp].d(T)[sp].d(G)[sp].d(G)[sp].d(A)[sp].d(G)[sp].d(C)[sp].d(C)[sp].d(A)[sp].d(C)[sp].d(C)[sp].[cEt](A)[sp].[cEt](G)[sp].[cEt](C)}$$$$V2.0” is 56% and 63%; for “RNA1{[moe](A)[sp].[cEt](A)[sp].[cEt](C)[sp].d(T)[sp].d(G)[sp].d(G)[sp].d(A)[sp].d(G)[sp].d(C)[sp].d(C)[sp].d(A)[sp].d(C)[sp].d(C)[sp].[cEt](A)[sp].[cEt](G)[sp].[moe](C)}$$$$V2.0” it is 67% and 68%; for “RNA1{[moe](G)[sp].[moe](C)[sp].[moe](A)[sp].[moe](G)[sp].[moe](A)[sp].[moe](G)[sp].d(G)[sp].d(T)[sp].d(G)[sp].d(A)[sp].d(A)[sp].d(G)[sp].d(C)[sp].d(G)[sp].d(A)[sp].[moe](A)[sp].[moe](G)}$$$$V2.0” it is 65% and 68%.
Consider “RNA1{[moe](G)[sp].[cEt](T)[sp].[cEt](C)[sp].d(C)[sp].d(A)[sp].d(C)[sp].d(C)[sp].d(A)[sp].d(C)[sp].d(G)[sp].d(A)[sp].d(G)[sp].d(T)[sp].[cEt](C)[sp].[cEt](T)[sp].[moe](A)}$$$$V2.0”, for which the target mRNA inhibition (HepG2, 0.07 µM) is 55% and 56%.
